Data reported in patent US5919769A, “Fucose derivatives, drugs containing the same as active ingredient, and intermediates for producing the same” (Kanebo, Ltd, priority 1995, dated 1999).
Counter-ions that a name gives are not always drawn.

Columns and labels:
P-selectin = experiment: Inhibitory test on the binding of P-selectin to sialyl Le^X (selectin-IgG chimera); conditions: inhibition of P-selectin IgG chimera binding to sialyl Le^X-pentaceramide
Procedure: Inhibitory test on the binding of P-selectin to sialyl Le^X :
(§1) The experiment was carried out according to the method using selectin-IgG chimera, which was reported by Foxall, C. et al. (J. Cell Biol., 117, 895-902 (1992)).
(§2) Sialyl Le^X -pentaceramide was dissolved in 50% methanol in distilled water, and the solution was put into a 96-well plate in an amount of 100 pmol/well. The plate was allowed to stand at room temperature overnight, and the solvent therein was evaporated. The plate was washed with distilled water, and subjected to blocking with 50 mM imidazole buffer (pH 7.2) containing 5% BSA (bovine serum albumin) and 1 mM calcium chloride at room temperature for one hour.
(§3) Separately, to 500-fold diluted solution of each biotinylated anti-human IgG Fc and streptavidin-alkaline phosphatase conjugate with a 50 mM imidazole buffer (pH 7.2) containing 1% BSA and 1 mM calcium chloride, P-selectin IgG chimera was added to give a final concentration of 40 μg/ml, and the mixture was incubated at room temperature for 30 minutes to give the complex solution.
(§4) A test compound was dissolved in DMSO (except that the test compound h was dissolved in distilled water) to give 10 mM aqueous solution thereof, which was serially diluted with 50 mM imidazole buffer (pH 7.2) containing 1% BSA and 1 mM calcium chloride to give the solutions in 8 various concentrations (two-fold serial dilution from 20 μM). The test compound solution in each concentration and the above complex solution were mixed in equal volume, and the mixture was incubated at room temperature for 30 minutes to give the reaction solution.
(§5) After the blocking was completed, the blocking solution in the above plate was discarded, and the plate was washed with 50 mM imidazole buffer (pH 7.2), and thereto was added the above reaction solution in an amount of 50 μl/well. The plate was incubated at 37° C. for 45 minutes, and then washed three times with 50 mM imidazole buffer (pH 7.2) and washed three times with distilled water. 1M diethanolamine (pH 9.8) containing 0.01% magnesium chloride and 1 mg/ml p-nitrophenyl phosphate was put into each well in an amount of 50 μl/well, and the plate was allowed to stand for 1 to 2 hours for color development. The absorbance at 405 nm was measured, and the binding rate (%) was calculated by the following equation, based on the absorbance (X) of the wells containing a test compound at various concentrations and the absorbance (A) of the wells containing no test compound.
(§6) IC50 was evaluated by probit method from the binding rate.

L-selectin = experiment: Inhibitory test on the binding of L-selectin to sialyl Le^X (selectin-IgG chimera); conditions: inhibition of L-selectin IgG chimera binding to sialyl Le^X-pentaceramide
Procedure: as §1, §2, §3, §4, §5, §6
Inhibitory test on the binding of L-selectin to sialyl Le^X :
The same procedures of Experiment 1 were repeated except that L-selectin IgG chimera (40 μg/ml) was used instead of P-selectin IgG chimera (40 μg/ml).

## CC(=O)N[C@H]1[C@H]([C@H](O)[C@H](O)CO)O[C@@](O[C@H]2[C@@H](O)[C@@H](CO)O[C@@H](O[C@@H]([C@H](O[C@@H]3O[C@@H](C)[C@@H](O)[C@@H](O)[C@@H]3O)[C@H](C=O)NC(C)=O)[C@H](O)CO)[C@@H]2O)(C(=O)O)C[C@@H]1O [compound X, Sialyl Le^X, reference compound]
P-selectin
  IC50: > 500000 nM
L-selectin
  IC50: > 500000 nM

## CCCCCCCCCCCCCCC(CCCCCCCCCCCCCC)C(=O)N[C@@H](CO[C@@H]1O[C@H]([C@H](C)O)[C@@H](O)[C@@H]1O)C(=O)N[C@@H](CCC(=O)O)C(=O)NC [compound a, [N-(2-tetradecylhexadecanoyl)-O-(α-L-fucofuranosyl)-L-seryl]-L-glutamic acid 1-methylamide]
P-selectin
  IC50: 1300 nM
L-selectin
  IC50: 2200 nM

## CCCCCCCCCCCCCCC(CCCCCCCCCCCCCC)C(=O)N[C@@H](CO[C@@H]1O[C@H]([C@H](C)O)[C@@H](O)[C@@H]1O)C(=O)N[C@H](CCC(=O)O)C(=O)NC [compound b, [N-(2-tetradecylhexadecanoyl)-O-(α-L-fucofuranosyl)-L-seryl]-D-glutamic acid 1-methylamide]
P-selectin
  IC50: 1000 nM
L-selectin
  IC50: 1500 nM

## CCCCCCCCCCCCCCC(CCCCCCCCCCCCCC)C(=O)N[C@H](CO[C@@H]1O[C@H]([C@H](C)O)[C@@H](O)[C@@H]1O)C(=O)N[C@H](CCC(=O)O)C(=O)NC [compound d, [N-(2-tetradecylhexadecanoyl)-O-(α-L-fucofuranosyl)-D-seryl]-D-glutamic acid 1-methylamide]
P-selectin
  IC50: 200 nM
L-selectin
  IC50: 500 nM

## CCCCCCCCCCCCCCC(CCCCCCCCCCCCCC)C(=O)N[C@@H](CO[C@@H]1O[C@H]([C@H](C)O)[C@@H](O)[C@@H]1O)C(=O)NCCCC(=O)O [compound e, 4-N-[N-(2-tetradecylhexadecanoyl)-O-(α-L-fucofuranosyl)-L-seryl]aminobutyric acid]
P-selectin
  IC50: 500 nM
L-selectin
  IC50: 1800 nM

## CCCCCCCCCCCCCCC(CCCCCCCCCCCCCC)C(=O)N[C@@H](CO[C@@H]1O[C@H]([C@H](C)O)[C@@H](O)[C@@H]1O)C(=O)NCCCCC(=O)O [compound f, 5-N-[N-(2-tetradecylhexadecanoyl)-O-(α-L-fucofuranosyl)-L-seryl]aminovaleric acid]
P-selectin
  IC50: 1200 nM
L-selectin
  IC50: 2500 nM

## CCCCCCCCCCCCCCC(CCCCCCCCCCCCCC)C(=O)N[C@@H](CO[C@@H]1O[C@H]([C@H](C)O)[C@@H](O)[C@@H]1O)C(=O)N[C@H](CCC(=O)O)C(=O)Nc1ccccc1 [compound g, [N-(2-tetradecylhexadecanoyl)-O-(α-L-fucofuranosyl)-L-seryl]-D-glutamic acid 1-anilide]
P-selectin
  IC50: 100 nM
L-selectin
  IC50: 1700 nM

## CCCCCCCCCCCCCCC(CCCCCCCCCCCCCC)C(=O)N[C@@H](CO[C@@H]1O[C@H]([C@H](C)O)[C@@H](O)[C@@H]1O)C(=O)N[C@H](CCC(=O)O)C(=O)NC [compound h, [N-(2-tetradecylhexadecanoyl)-O-(α-L-fucofuranosyl)-L-seryl]-D-glutamic acid 1-methylamide sodium salt]
P-selectin; sodium salt
  IC50: 1200 nM
L-selectin; sodium salt
  IC50: 300 nM

## CCCCCCCCCCCCCCC(CCCCCCCCCCCCCC)C(=O)N[C@@H](CO[C@@H]1O[C@@H](C)[C@@H](O)[C@@H](O)[C@@H]1O)C(=O)N[C@@H](CCC(=O)O)C(=O)NC [compound i, [N-(2-tetradecylhexadecanoyl)-O-(α-L-fucopyranosyl)-L-seryl]-L-glutamic acid 1-methylamide]
P-selectin
  IC50: 1900 nM
L-selectin
  IC50: 39000 nM

## CCCCCCCCCCCCCCC(CCCCCCCCCCCCCC)C(=O)N[C@@H](CO[C@@H]1O[C@@H](C)[C@@H](O)[C@@H](O)[C@@H]1O)C(=O)N[C@H](CCC(=O)O)C(=O)NC [compound j, [N-(2-tetradecylhexadecanoyl)-O-(α-L-fucopyranosyl)-L-seryl]-D-glutamic acid 1-methylamide]
P-selectin
  IC50: 500 nM
L-selectin
  IC50: 6000 nM
